Measured values reported in patent US20250228853A1, “Apoptosis Inhibitors” (Queen's University at Kingston, priority 2024, published 2025).
Entries after “also recorded” stand apart in the source; their conditions may differ.

Assays:
[1] = system: BEAS-2B cells infected with HCoV-OC43; assay: apoptosis by TUNEL staining in HCoV-OC43 infected BEAS-2B cells; format: cell-based, human; settings: for apoptosis (TUNEL positive cells): BEAS-2B, 48 h treatment from 24 h post infection, FIG. 1B; for effectiveness in the in vitro screening to confirm biological activity: in vitro screening as described in the patent
Description: (§1) Cell Culture: BEAS-2B cells (an epithelial cell line that was isolated from normal human bronchial epithelium) were purchased from the American Type Culture Collection (ATCC) through Cedarlane Corp., Burlington, Canada. The cells were cultured in bronchial epithelial cell growth medium (Lonza/Clonetics Corporation, Basel, Switzerland) supplemented with 10% fetal bovine serum (FBS). Cells were cultured at 37° C. in a humidified incubator balanced with 5% CO2.
(§2) Compound solution preparation for in vitro experiments: Candidate compounds were dissolved in anhydrous Dimethyl Sulfoxide (DMSO) (available from Sigma Aldrich), filtered by a 0.20 μm PTFE filter and added to culture medium to make a working solution at designated concentrations. Final concentration of DMSO in culture medium was ≤0.1%. Same volume of DMSO was used as control.
(§3) An apoptosis study was conducted (see FIGS. 1A-1C). HCoV-OC43 infection (referred to as “OC43” herein) see Archer, S. L., et al., Redox Biology ([…]) 58:102508) was performed in BEAS-2B cells (an epithelial cell line that was isolated from normal human bronchial epithelium, available from ATCC through Cedarlane Corp., Burlington, Canada). Cells were counted and then seeded in a cell culture plate overnight. The cell culture media was replaced with serum-free media containing 3 focus-forming units (ffu)/cell of OC43 virus. The cells were cultured in this inoculum for 2 hours. Then the inoculum was replaced with complete growth medium and incubated at 33° C. until 72 hours post-infection (the time of the experimental endpoint). Cells were then treated for 48 hours with AIF Inhibitor compounds starting at 24 hours post infection. Concentration of compounds: AIF inhibitor 1, AIF inhibitor 3, and AIF inhibitor 6 were used at a concentration of 10 uM; Drpitor1a, which is a Drp1 inhibitor and is not an AIF inhibitor) was used at a concentration of 1 uM. Cell viability was measured by cell count (see FIG. 1A). Apoptotic cells were measured by TUNEL staining (see FIG. 1B) (see Archer, S. L., et al., Redox Biol. (2022) 58:102508). Cells were dual stained with Click-iT® Plus TUNEL (available from Thermo Fisher, Waltham, MA, USA) and 4′,6-diamidino-2-phenylindole (DAPI) (available from Thermo Fisher, Waltham, MA, USA). Images were captured on a Leica SP8 confocal microscope using a 63×1.4 NA objective and a white light laser at 488 nm. Emission acquisition gating was 510-530 nm (for TUNEL). A 405 nm laser diode was used for DAPI excitation and the emission acquisition gate was set at 420-480 nm. Viral loads were quantified using qRT-PCR (see FIG. 1C). mRNA level of HCoV-OC43 N protein was measured and compared among treatment groups.

[2] = system: murine hepatitis virus-1 (MHV-1); assay: murine model of MHV-1 pneumonia (lung photographs, micro-CT, hemodynamics); format: in vivo; settings: 1 mg/kg QD IP 5 days
Description: Five-week-old A/J mice (Jackson Labs, Bar Harbour, Maine) were given an intranasal inoculation of either MHV-1 (5000 PFU/17 μl) or an identical volume of saline as control. AIF inhibitor 6 was administered for 5 days (1 mg/kg, QD, IP) post infection. At day 5 post-infection, mice were anesthetized with a single IP injection of ketamine/xylazine (150 mg/kg and 10 mg/kg, respectively). O2 saturation was measured while mice breathed room air, following which they were intubated and mechanically ventilated, which increased their O2 saturation. Transcutaneous O2 saturation was monitored during the procedure using a MouseSTAT® Jr. rodent pulse oximeter attached to the rear paw (Kent Scientific Corporation, Torrington, CT, USA). Right heart catheterization (RHC) was performed using a 1.2F Scisense pressure-volume catheter (Transonic Systems Inc., Ithaca, NY, USA) via a closed chest approach. Mice were ventilated with normoxic gas (room air, 20.6% O2) for 10 minutes, followed by hypoxic gas for 10 minutes (10% 02 balanced with N2) and then followed by normoxic gas (room air, 20.6% O2) for 10 minutes. This regimen was designed to elicit hypoxic pulmonary vasoconstriction (HPV), a normal physiologic response of the pulmonary arteries to airway hypoxia.
Referring to FIGS. 2A-2B, photographs and micro-CT images are shown from a study probing the effect of AIF Inhibitors on murine lung that had been exposed to MHV-1. Lungs were fixed with 4% formaldehyde (PFA) and perfused with 25% barium sulfate via the trachea and imaged by microCT. The micro-CT images were acquired using a VECTor4CT pre-clinical scanner (MILabs B.V., Utrecht, Netherlands) equipped with a cone beam X-ray CT system. The measurements used an acceleration voltage of 50 kVp and X-ray tube current of 430 μA in the ultra-focus mode, allowing acquisition of 3,600 projections with exposure time 40 ms, resulting in a 25 μm resolution. Tomographic CT images of FIG. 2B were compiled using MILabs reconstruction software. For quantification and segmentation, CT image data was manually processed using PMOD 3.9 software (PMOD Technologies Ltd., Zurich, Switzerland).

HCoV-OC43 = assay: viral load by qRT-PCR of HCoV-OC43 N protein mRNA in BEAS-2B cells; format: cell-based, Human coronavirus OC43; settings: 48 h treatment from 24 h post infection, FIG. 1C
Description: as §1, §2, §3

[3] = system: BEAS-2B cells infected with HCoV-OC43; assay: cell viability by cell count in HCoV-OC43 infected BEAS-2B cells; format: cell-based, human; settings: 1 uM, 48 h treatment from 24 h post infection, endpoint 72 h, FIG. 1A
Description: as §1, §2
An apoptosis study was conducted (see FIGS. 1A-1C). […] Cells were counted and then seeded in a cell culture plate overnight. […] Cell viability was measured by cell count (see FIG. 1A). Apoptotic cells were measured by TUNEL staining (see FIG. 1B) (see Archer, S. L., et al., Redox Biol. (2022) 58:102508). […] Viral loads were quantified using qRT-PCR (see FIG. 1C). mRNA level of HCoV-OC43 N protein was measured and compared among treatment groups.

[4] = MHV-1 infected mice, vs vehicle, FIG. 2A

With `O=C1c2ccccc2C(=O)N1CCc1c[nH]c2ccc(OCc3ccccc3)cc12` [Compound 6, 2-(2-(5-(benzyloxy)-1H-indol-3-yl)ethyl) isoindoline-1,3-dione] the “apoptosis (TUNEL positive cells)” value ([1]; HCoV-OC43, 10 uM) was “reduced”, the “effectiveness in the in vitro screening to confirm biological activity” value (shortened to “effectiveness … to confirm biological activity”) [1] was “particularly effective” and the lung edema [2, 4] was “reduced lung edema”. The “structural damage of the lungs” value [2, 4] was “significantly less structural damage”, the “lung perfusion (micro-CT, barium contrast)” value ([2]; MHV-1 infected mice, vs vehicle, FIG. 2B) was “increased lung perfusion” and the “hypoxic pulmonary vasoconstriction (rise in RVSP with hypoxia)” value ([2]; MHV-1 infected mouse, 10% O2 for 10 min, one mouse per group, FIG. 2C) was “restored hypoxic pulmonary vasoconstriction”. For the same compound, the “viral load (Relative N expression, Nucleocapsid mRNA)” value (HCoV-OC43; HCoV-OC43, 10 uM) was “lowers the viral titer; also recorded: reduced viral load”.

For `O=C1c2ccncc2C(=O)c2c1[nH]c1ccccc21` [Drpitor1a, reference compound], the “apoptosis (TUNEL positive cells)” value ([1]; HCoV-OC43, 1 uM) was “reduced”, the “viral load (Relative N expression, Nucleocapsid mRNA)” value (HCoV-OC43; HCoV-OC43, 1 uM) was “reduced viral load” and the “cell numbers (cell count) after HCoV-OC43 infection” value [3] was “reversed”.

For `CN1C(CC2=NC(C3CCOCC3)CC(=O)N2)=NCc2ccccc21` (stereo not shown) [Compound 1, 2-[(1-methyl-1,4-dihydroquinazolin-2-yl)methyl)-6-(tetrahydro-2H-pyran-4-yl)-5,6-dihydropyrimidin-4 (3H)-one], the “apoptosis (TUNEL positive cells)” value ([1]; HCoV-OC43, 10 uM) was “reduced”, the “effectiveness … to confirm biological activity” value [1] was “particularly effective” and the “viral load (Relative N expression, Nucleocapsid mRNA)” value (HCoV-OC43; HCoV-OC43, 10 uM) was “reduced viral load”.

With `CCN(CC)C(=O)c1nc2ccccc2cc1C(=O)c1cc(=O)[nH]c2ccccc12` [Compound 3, N,N-diethyl-3-(2-oxo-1,2-dihydroquinoline-4-carbonyl) quinoline-2-carboxamide] the “apoptosis (TUNEL positive cells)” value ([1]; HCoV-OC43, 10 uM) was “reduced”, the “effectiveness … to confirm biological activity” value [1] was “particularly effective” and the “viral load (Relative N expression, Nucleocapsid mRNA)” value (HCoV-OC43; HCoV-OC43, 10 uM) was “reduced viral load”.
